Assay results: patent publication US6355799B1, “Substituted benzene compounds, process for their preparation, and herbicidal and defoliant compositions containing them” (ISK Americas Incorporated, priority 1997, dated 2002)

How the values were obtained:
Type in all cases: in vivo
[1] = tested on: redroot pigweed (Amaranthus retroflexus, AMARE); assay: Pre-emerge test, greenhouse herbicide activity screening; conditions: pre-emerge, 14 days after application
Excerpt: (§1) A standard greenhouse herbicide activity screening system was used to evaluate the herbicidal efficacy and crop safety of these test compounds. Seven broadleaf weed species including redroot pigweed (Amaranthus retroflexus, AMARE, velvetleaf (Abutilon theophrasti, ABUTH), sicklepod (Cassia obtusifolia, CASOB), ivyleaf morningglory (Ipomoea hederacea, IPOHE), lambsquarters (Chenopodium album, CHEAL), common ragweed (Ambrosia artemisizfolia L., AMBEL), and cocklebur (Xanthium strumarium, XANST) were used as test species. Four grass weed species including green foxtail (Setaria viridis, SETVI), barnyardgrass (Echinochloa crus-galli, ECHCG), johnsongrass (Sorghum halepense, SORHA), and large crabgrass (Digitaria sanguinalis, DIGSA) were also used. In addition, three crop species, field corn (Zea mays L., var. Dekalb 535, CORN), soybean (Glycine max L., var. Pella 86, SOY), and is upland rice (Oryza sp., var. Tebonnet, RICE) were included.
(§2) All plants were grown in 10 cm square plastic pots which were filled with a sandy loam soil mix. For pre-emerge tests, seeds were planted one day prior to application of the test compounds. For post-emerge tests, seeds were planted 8-21 days prior to the test to allow emergence and good foliage development prior to application of the test substances. At the time of the post-emerge application, plants of all species were usually at the 2-3 leaf stage of development.
All test compounds Were dissolved in acetone and applied to the test units in a volume of 187 l /ha. […] Plants were arranged on a shelf so that the top of the canopy (post-emerge) or top of the soil surface (pre-emerge) was 40-45 cm below the nozzle. Pressurized air was used to force the test solution through the nozzle as it was mechanically advanced (via electrically driven chain drive) over the top of all test plants/pots. This application simulates a typical commercial field herbicide application.
(§3) In the post-emerge test, a commercial non-ionic surfactant was also included (0.25% v/v) to enhance wetting of the leaf surfaces of target plants. Immediately after application, test units of the pre-emerge applications were watered at the soil surface to incorporate the test materials. Subsequently, these test units were bottom-watered. Post-emerge test units were always bottom-watered.
(§4) At 14 days after application of the test materials, phytotoxicity ratings were recorded. A rating scale of 0-100 was used as previously described in Research Methods in Weed Science, 2nd edition, B. Truelove, Ed., Southern Weed Science Society, Auburn University, Auburn, Ala. 1977. Briefly, “0” corresponds to no damage and “100” corresponds to complete death of all plants in the test unit. This scale was used both to determine efficacy against weed species and damage to crop species. Herbicide activity data for various compounds of this invention, which are shown by compound No. in Tables 1-8, are shown in Tables 11 and 12.

[2] = tested on: barnyardgrass (Echinochloa crus-galli, ECHCG); assay: as above; conditions: pre-emerge, 14 days after application
Excerpt: as §1, §2
(§5) All test compounds Were dissolved in acetone and applied to the test units in a volume of 187 l /ha. Test materials were applied at rates ranging from 15 g ai/ha to 1000 g ai/ha using a track sprayer equipped with a TJ8001E even flow flat fan spray nozzle. Plants were arranged on a shelf so that the top of the canopy (post-emerge) or top of the soil surface (pre-emerge) was 40-45 cm below the nozzle. Pressurized air was used to force the test solution through the nozzle as it was mechanically advanced (via electrically driven chain drive) over the top of all test plants/pots. This application simulates a typical commercial field herbicide application.
as §3, §4

[3] = tested on: green foxtail (Setaria viridis, SETVI); assay: as above; conditions: pre-emerge, 14 days after application
Excerpt: as §1, §2, §5, §3, §4

[4] = tested on: ivyleaf morningglory (Ipomoea hederacea, IPOHE); assay: as above; conditions: pre-emerge, 14 days after application
Excerpt: as §1, §2, §5, §3, §4

[5] = tested on: lambsquarters (Chenopodium album, CHEAL); assay: as above; conditions: pre-emerge, 14 days after application
Excerpt: as §1, §2, §5, §3, §4

[6] = tested on: large crabgrass (Digitaria sanguinalis, DIGSA); assay: as above; conditions: pre-emerge, 14 days after application
Excerpt: as §1, §2, §5, §3, §4

[7] = tested on: sicklepod (Cassia obtusifolia, CASOB); assay: as above; conditions: pre-emerge, 14 days after application
Excerpt: as §1, §2, §5, §3, §4

[8] = tested on: velvetleaf (Abutilon theophrasti, ABUTH); assay: as above; conditions: pre-emerge, 14 days after application
Excerpt: as §1, §2, §5, §3, §4

[9] = tested on: field corn (Zea mays L., var. Dekalb 535, CORN); assay: Pre-emerge test, crop safety; conditions: pre-emerge, 14 days after application, scale 0-100
Excerpt: as §1, §2, §5, §3, §4

[10] = tested on: upland rice (Oryza sp., var. Tebonnet, RICE); assay: Pre-emerge test, crop safety; conditions: pre-emerge, 14 days after application, scale 0-100
Excerpt: as §1, §2, §5, §3, §4

[11] = tested on: barnyardgrass (Echinochloa crus-galli, ECHCG); assay: Post-emerge test, greenhouse herbicide activity screening; conditions: post-emerge, 14 days after application, rating scale 0-100
Excerpt: as §1, §2, §5, §3, §4

[12] = tested on: green foxtail (Setaria viridis, SETVI); assay: as above; conditions: post-emerge, 14 days after application, rating scale 0-100
Excerpt: as §1, §2, §5, §3, §4

[13] = tested on: ivyleaf morningglory (Ipomoea hederacea, IPOHE); assay: as above; conditions: post-emerge, 14 days after application, rating scale 0-100
Excerpt: as §1, §2, §5, §3, §4

[14] = tested on: lambsquarters (Chenopodium album, CHEAL); assay: as above; conditions: post-emerge, 14 days after application, rating scale 0-100
Excerpt: as §1, §2, §5, §3, §4

[15] = tested on: large crabgrass (Digitaria sanguinalis, DIGSA); assay: as above; conditions: post-emerge, 14 days after application, rating scale 0-100
Excerpt: as §1, §2, §5, §3, §4

[16] = tested on: redroot pigweed (Amaranthus retroflexus, AMARE); assay: as above; conditions: post-emerge, 14 days after application
Excerpt: as §1, §2, §5, §3, §4

[17] = tested on: sicklepod (Cassia obtusifolia, CASOB); assay: as above; conditions: post-emerge, 14 days after application, rating scale 0-100
Excerpt: as §1, §2, §5, §3, §4

[18] = tested on: velvetleaf (Abutilon theophrasti, ABUTH); assay: as above; conditions: post-emerge, 14 days after application, rating scale 0-100
Excerpt: as §1, §2, §5, §3, §4

[19] = 250 g ai/ha, rating scale 0-100

COc1c(Cl)cc(F)c(-n2c(=O)cc(C(F)(F)F)n(C)c2=O)c1NC(=O)c1cc2ccccc2cc1C [2-157]
phytotoxicity rating AMARE ([1]; 63 g ai/ha, scale 0-100): 100 | phytotoxicity rating AMARE ([1]; 250 g ai/ha, scale 0-100): 100 | phytotoxicity rating ECHCG ([2]; 63 g ai/ha, scale 0-100): 30 | phytotoxicity rating ECHCG ([2]; 250 g ai/ha, scale 0-100): 95 | phytotoxicity rating SETVI ([3]; 63 g ai/ha, scale 0-100): 30 | phytotoxicity rating SETVI ([3]; 250 g ai/ha, scale 0-100): 70 | phytotoxicity rating IPOHE ([4]; 63 g ai/ha, scale 0-100): 40 | phytotoxicity rating IPOHE ([4]; 250 g ai/ha, scale 0-100): 100 | phytotoxicity rating CHEAL ([5]; 63 g ai/ha, scale 0-100): 100 | phytotoxicity rating CHEAL ([5]; 250 g ai/ha, scale 0-100): 100 | phytotoxicity rating DIGSA ([6]; 63 g ai/ha, scale 0-100): 35 | phytotoxicity rating DIGSA ([6]; 250 g ai/ha, scale 0-100): 70 | phytotoxicity rating CASOB ([7]; 63 g ai/ha, scale 0-100): 30 | phytotoxicity rating CASOB ([7]; 250 g ai/ha, scale 0-100): 90 | phytotoxicity rating ABUTH ([8]; 63 g ai/ha, scale 0-100): 100 | phytotoxicity rating ABUTH ([8]; 250 g ai/ha, scale 0-100): 100 | phytotoxicity rating CORN (crop damage) ([9]; 63 g ai/ha): 0 | phytotoxicity rating CORN (crop damage) ([9]; 250 g ai/ha): 45 | phytotoxicity rating RICE (crop damage) ([10]; 63 g ai/ha): 30 | phytotoxicity rating RICE (crop damage) ([10]; 250 g ai/ha): 70

COc1c(Cl)cc(F)c(-n2c(=O)cc(C(F)(F)F)n(C)c2=O)c1NN [Compound 15-1, 3-[4-chloro-2-diazanyl-6-fluoro-3-methoxyphenyl]-1-methyl-6-trifluoromethyl-2,4(1H, 3H)-pyrimidinedione]
phytotoxicity rating AMARE ([1]; 63 g ai/ha, rating scale 0-100): 100 | phytotoxicity rating AMARE [1, 19]: 100 | phytotoxicity rating ECHCG ([2]; 63 g ai/ha, rating scale 0-100): 91 | phytotoxicity rating ECHCG [2, 19]: 100 | phytotoxicity rating SETVI ([3]; 63 g ai/ha, rating scale 0-100): 100 | phytotoxicity rating SETVI [3, 19]: 100 | phytotoxicity rating IPOHE ([4]; 63 g ai/ha, rating scale 0-100): 100 | phytotoxicity rating IPOHE [4, 19]: 100 | phytotoxicity rating CHEAL ([5]; 63 g ai/ha, rating scale 0-100): 100 | phytotoxicity rating CHEAL [5, 19]: 100 | phytotoxicity rating DIGSA ([6]; 63 g ai/ha, rating scale 0-100): 100 | phytotoxicity rating DIGSA [6, 19]: 100 | phytotoxicity rating CASOB ([7]; 63 g ai/ha, rating scale 0-100): 100 | phytotoxicity rating CASOB [7, 19]: 100 | phytotoxicity rating ABUTH ([8]; 63 g ai/ha, rating scale 0-100): 100 | phytotoxicity rating ABUTH [8, 19]: 100 | Post-emerge Herbicidal Activity ECHCG (phytotoxicity rating) ([11]; 63 g ai/ha): 80 | Post-emerge Herbicidal Activity ECHCG (phytotoxicity rating) ([11]; 250 g ai/ha): 99 | Post-emerge Herbicidal Activity SETVI (phytotoxicity rating) ([12]; 63 g ai/ha): 80 | Post-emerge Herbicidal Activity SETVI (phytotoxicity rating) ([12]; 250 g ai/ha): 100 | Post-emerge Herbicidal Activity IPOHE (phytotoxicity rating) ([13]; 63 g ai/ha): 100 | Post-emerge Herbicidal Activity IPOHE (phytotoxicity rating) ([13]; 250 g ai/ha): 100 | Post-emerge Herbicidal Activity CHEAL (phytotoxicity rating) ([14]; 63 g ai/ha): 100 | Post-emerge Herbicidal Activity CHEAL (phytotoxicity rating) ([14]; 250 g ai/ha): 100 | Post-emerge Herbicidal Activity DIGSA (phytotoxicity rating) ([15]; 63 g ai/ha): 90 | Post-emerge Herbicidal Activity DIGSA (phytotoxicity rating) ([15]; 250 g ai/ha): 100 | Post-emerge Herbicidal Activity AMARE (phytotoxicity rating) ([16]; 63 g ai/ha, rating scale 0-100 (0 no damage, 100 complete death)): 100 | Post-emerge Herbicidal Activity AMARE (phytotoxicity rating) [16, 19]: 100 | Post-emerge Herbicidal Activity CASOB (phytotoxicity rating) ([17]; 63 g ai/ha): 100 | Post-emerge Herbicidal Activity CASOB (phytotoxicity rating) ([17]; 250 g ai/ha): 100 | Post-emerge Herbicidal Activity ABUTH (phytotoxicity rating) ([18]; 63 g ai/ha): 100 | Post-emerge Herbicidal Activity ABUTH (phytotoxicity rating) ([18]; 250 g ai/ha): 100
